In the supplement of paper PMC13207355:

Assays:
Conditions in all cases: exposure time: 72 h
[1] = test system: E34 (patient-derived glioblastoma stem cells of proneural subtype); test: phenotypic distance (Euclidean, principal components) from DMSO controls (arbitrary units); higher = stronger morphological change
[2] = test system: E31 (patient-derived glioblastoma stem cells of proneural subtype); test: as above
[3] = test system: E28 (patient-derived glioblastoma stem cells of classical subtype); test: as above
[4] = test system: E57 (patient-derived glioblastoma stem cells of mesenchymal subtype); test: as above
[5] = test system: E21 (patient-derived glioblastoma stem cells of mesenchymal subtype); test: as above
[6] = test system: E13 (patient-derived glioblastoma stem cells of classical subtype); test: as above
[7] = test system: FT3469 (normal neural stem cell line); test: as above
[8] = test system: E34; test: surviving fraction (nuclei count normalised to DMSO); higher = more cells surviving (less toxic)
[9] = test system: E31; test: as above
[10] = test system: E28; test: as above
[11] = test system: E57; test: as above
[12] = test system: E21; test: as above
[13] = test system: E13; test: as above
[14] = test system: FT3469; test: as above
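For phenotypic distance (Euclidean, principal components) from DMSO controls in this document: cell Painting imaging in 384-well plates, CellProfiler features reduced to at least 20 principal components, Euclidean distance versus same-plate DMSO vehicle wells (0.1% v/v), median over six images per well.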
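For surviving fraction (nuclei count normalised to DMSO) in this document: nuclei counted by high-content imaging of Hoechst-stained cells in laminin-coated 384-well plates, relative to 0.1% DMSO vehicle wells, with staurosporine as cell-death control.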

C[C@H]1O[C@@H](O[C@H]2[C@@H](O)C[C@H](O[C@H]3[C@@H](O)C[C@H](O[C@H]4CC[C@@]5(C)[C@H](CC[C@@H]6[C@@H]5C[C@@H](O)[C@]5(C)[C@@H](C7=CC(=O)OC7)CC[C@]65O)C4)O[C@@H]3C)O[C@@H]2C)C[C@H](O)[C@@H]1O [Digoxin]
Conditions	phenotypic distance	surviving fraction
[1], 4.1 nM	1.18	–
[1], 12.3 nM	3.09	–
[1], 37 nM	4.76	–
[1], 111.1 nM	5.12	–
[1], 333.3 nM	3.77	–
[1], 1000 nM	3.7	–
[1], 3000 nM	5.72	–
[2], 4.1 nM	2.21	–
[2], 12.3 nM	3.02	–
[2], 37 nM	4.38	–
[2], 111.1 nM	5.51	–
[2], 333.3 nM	5.08	–
[2], 1000 nM	4.94	–
[2], 3000 nM	4.77	–
[3], 4.1 nM	1	–
[3], 12.3 nM	1.47	–
[3], 37 nM	2.1	–
[3], 111.1 nM	2.57	–
[3], 333.3 nM	2.97	–
[3], 1000 nM	3.74	–
[3], 3000 nM	2.92	–
[4], 4.1 nM	1.42	–
[4], 12.3 nM	3.76	–
[4], 37 nM	5.52	–
[4], 111.1 nM	5.37	–
[4], 333.3 nM	6.22	–
[4], 1000 nM	6.34	–
[4], 3000 nM	6.45	–
[5], 4.1 nM	2.11	–
[5], 12.3 nM	3.25	–
[5], 37 nM	3.77	–
[5], 111.1 nM	6.27	–
[5], 333.3 nM	6.66	–
[5], 1000 nM	5.99	–
[5], 3000 nM	6.15	–
[6], 4.1 nM	2.96	–
[6], 12.3 nM	3.64	–
[6], 37 nM	5.02	–
[6], 111.1 nM	5.57	–
[6], 333.3 nM	6.42	–
[6], 1000 nM	6.06	–
[6], 3000 nM	6.15	–
[7], 4.1 nM	2.61	–
[7], 12.3 nM	3.2	–
[7], 37 nM	4.1	–
[7], 111.1 nM	3.74	–
[7], 333.3 nM	3.18	–
[7], 1000 nM	4.16	–
[7], 3000 nM	3.8	–
[8], 4.1 nM	–	0.979
[8], 12.3 nM	–	0.745
[8], 37 nM	–	0.632
[8], 111.1 nM	–	0.539
[8], 333.3 nM	–	0.466
[8], 1000 nM	–	0.394
[8], 3000 nM	–	0.293
[9], 4.1 nM	–	0.87
[9], 12.3 nM	–	0.721
[9], 37 nM	–	0.47
[9], 111.1 nM	–	0.403
[9], 333.3 nM	–	0.36
[9], 1000 nM	–	0.356
[9], 3000 nM	–	0.252
[10], 4.1 nM	–	0.839
[10], 12.3 nM	–	0.85
[10], 37 nM	–	0.696
[10], 111.1 nM	–	0.628
[10], 333.3 nM	–	0.491
[10], 1000 nM	–	0.452
[10], 3000 nM	–	0.332
[11], 4.1 nM	–	1
[11], 12.3 nM	–	0.74
[11], 37 nM	–	0.392
[11], 111.1 nM	–	0.27
[11], 333.3 nM	–	0.207
[11], 1000 nM	–	0.166
[11], 3000 nM	–	0.112
[12], 4.1 nM	–	0.854
[12], 12.3 nM	–	0.676
[12], 37 nM	–	0.497
[12], 111.1 nM	–	0.368
[12], 333.3 nM	–	0.269
[12], 1000 nM	–	0.266
[12], 3000 nM	–	0.218
[13], 4.1 nM	–	0.795
[13], 12.3 nM	–	0.448
[13], 37 nM	–	0.349
[13], 111.1 nM	–	0.348
[13], 333.3 nM	–	0.272
[13], 1000 nM	–	0.306
[13], 3000 nM	–	0.266
[14], 4.1 nM	–	0.79
[14], 12.3 nM	–	0.652
[14], 37 nM	–	0.628
[14], 111.1 nM	–	0.686
[14], 333.3 nM	–	0.684
[14], 1000 nM	–	0.577
[14], 3000 nM	–	0.566

c1ccc2c(c1)[I+]c1ccccc1-2 [Diphenyleneiodonium chloride]
Conditions	phenotypic distance	surviving fraction
[1], 4.1 nM	1.01	–
[1], 12.3 nM	1.55	–
[1], 37 nM	1.65	–
[1], 111.1 nM	2.16	–
[1], 333.3 nM	1.7	–
[1], 1000 nM	3.29	–
[1], 3000 nM	4.68	–
[2], 4.1 nM	1.12	–
[2], 12.3 nM	1.08	–
[2], 37 nM	2.15	–
[2], 111.1 nM	2.63	–
[2], 333.3 nM	2.78	–
[2], 1000 nM	3.14	–
[2], 3000 nM	4.34	–
[3], 4.1 nM	0.894	–
[3], 12.3 nM	0.602	–
[3], 37 nM	0.781	–
[3], 111.1 nM	1.28	–
[3], 333.3 nM	2.53	–
[3], 1000 nM	2.98	–
[3], 3000 nM	3.16	–
[4], 4.1 nM	1.31	–
[4], 12.3 nM	1.36	–
[4], 37 nM	1.73	–
[4], 111.1 nM	4.12	–
[4], 333.3 nM	6.27	–
[4], 1000 nM	6.54	–
[4], 3000 nM	7.74	–
[5], 4.1 nM	2.03	–
[5], 12.3 nM	1.85	–
[5], 37 nM	1.83	–
[5], 111.1 nM	3.51	–
[5], 333.3 nM	2.93	–
[5], 1000 nM	3.58	–
[5], 3000 nM	4.29	–
[6], 4.1 nM	1.34	–
[6], 12.3 nM	4.24	–
[6], 37 nM	1.9	–
[6], 111.1 nM	2.21	–
[6], 333.3 nM	3.13	–
[6], 1000 nM	5.26	–
[6], 3000 nM	5.24	–
[7], 4.1 nM	1.56	–
[7], 12.3 nM	1.64	–
[7], 37 nM	1.95	–
[7], 111.1 nM	1.56	–
[7], 333.3 nM	2.13	–
[7], 1000 nM	2.73	–
[7], 3000 nM	2.8	–
[8], 4.1 nM	–	0.75
[8], 12.3 nM	–	0.634
[8], 37 nM	–	0.521
[8], 111.1 nM	–	0.586
[8], 333.3 nM	–	0.555
[8], 1000 nM	–	0.519
[8], 3000 nM	–	0.411
[9], 4.1 nM	–	0.886
[9], 12.3 nM	–	0.765
[9], 37 nM	–	0.518
[9], 111.1 nM	–	0.31
[9], 333.3 nM	–	0.371
[9], 1000 nM	–	0.338
[9], 3000 nM	–	0.216
[10], 4.1 nM	–	0.654
[10], 12.3 nM	–	0.916
[10], 37 nM	–	0.853
[10], 111.1 nM	–	0.524
[10], 333.3 nM	–	0.392
[10], 1000 nM	–	0.319
[10], 3000 nM	–	0.212
[11], 4.1 nM	–	0.876
[11], 12.3 nM	–	0.876
[11], 37 nM	–	0.767
[11], 111.1 nM	–	0.426
[11], 333.3 nM	–	0.291
[11], 1000 nM	–	0.266
[11], 3000 nM	–	0.21
[12], 4.1 nM	–	0.827
[12], 12.3 nM	–	0.767
[12], 37 nM	–	0.672
[12], 111.1 nM	–	0.559
[12], 333.3 nM	–	0.548
[12], 1000 nM	–	0.525
[12], 3000 nM	–	0.401
[13], 4.1 nM	–	0.616
[13], 12.3 nM	–	0.605
[13], 37 nM	–	0.464
[13], 111.1 nM	–	0.47
[13], 333.3 nM	–	0.417
[13], 1000 nM	–	0.331
[13], 3000 nM	–	0.251
[14], 4.1 nM	–	0.771
[14], 12.3 nM	–	0.707
[14], 37 nM	–	0.742
[14], 111.1 nM	–	0.753
[14], 333.3 nM	–	0.59
[14], 1000 nM	–	0.473
[14], 3000 nM	–	0.449
